Laboratory results from patent US10835519B2, “Targeting metabolic adaptive responses to chemotherapy” (University of Cincinnati, priority 2012, dated 2020).
Entries after “also recorded” stand apart in the source; their conditions may differ.

Key:
BCR-ABL+ FL5.12 cells [1] = assay: Viability by propidium iodide exclusion (flow cytometer); type: cell-based; conditions: for viability (cell death): 22 hours, FIG. 12
Experimental: BCR-ABL^+ FL5.12 cells were cultured in cytokine-free medium containing either 0.2 mM glucose (“low glucose”; -Glucose) or 10 mM glucose (“high glucose”, +Glucose) for 48 hours. The mean viability and standard deviation were determined by propidium iodide exclusion in a FACSAria flow cytometer (BD). Cells were washed three times in PBS and resuspended at a concentration of 2×10^5 per mL in media supplemented with 2 μg/mL of propidium iodide (Molecular Probes) prior to analysis. For the viability analysis of BCL-ABL^+ primary bone marrow cells, viability was measured after withdrawal from cytokines for five (5) days in high glucose or low glucose media. Methods used for culturing cells and measuring viability are described above and below.
Fatty acid oxidation inhibition via ST247, an inverse agonist that inhibits PPARδ activity, was examined. BCR-ABL-expressing FL5.12 cells were pretreated with vehicle control or 20 nM rapamycin overnight. Cells were cultured for 22 hours in complete medium lacking IL-3 and glucose, supplemented with the indicated treatments (vehicle, 0.5 μM ST247, 1 μM ST247, or 5 μM ST247). Viability was measured in three technical replicates by propidium iodide (PI) exclusion using a flow cytometer. […] The effect was dose dependent, with lesser concentrations resulting in little effect in rapamycin-treated cells.
In order to investigate the metabolic switch as glycolysis declines, BCR-ABL-expressing FL5.12 cells were pretreated with vehicle control or 20 nM rapamycin overnight. Cells were then cultured in complete medium lacking IL-3 with 100 μM glucose (a limiting concentration) for 46 hours, supplemented with either vehicle control or 5 μM ST247. Viability was measured in three technical replicates by PI exclusion in a flow cytometer.
BCR-ABL-expressing FL5.12 cells were pretreated with vehicle control or 20 nM rapamycin overnight. Cells were then cultured in complete medium lacking IL-3 with 50 μM glucose for 48 hours, supplemented with the indicated treatments (vehicle, 1 μM GW6471, 10 μM GW7647, or 5 μM ST247). Viability was measured in three technical replicates by PI exclusion in a flow cytometer.

Akt = Akt phosphorylation immunoblot in BCR-ABL+ FL5.12 cells; type: cell-based, murine; conditions: rebound after S6K1 knockdown; FIG. 5A
Experimental: Although Akt activation has been previously associated with glucose-dependent survival (see FIG. 4A), rebound activation of Akt was tested for association with increased survival in BCR-ABL^+ cells cultured under low glucose conditions. […] Inactivation of mTORC1 and S6K1 can trigger increases in the activity of Akt and other upstream kinases, due to knockdown or loss of feedback regulation.
Rapamycin treatment can induce rebound Akt activation in short-term cultures, but long term treatment can suppress Akt activation by the upstream kinase mTORC2. See, e.g., Sarbassov, et al., (2006) Mol Cell 22:159-68.

BCR-ABL+ K562 cells [2] = assay: Viability by propidium iodide exclusion; type: cell-based, human; conditions: full glucose; FIG. 10; not as strong as S6K1 knockdown with etomoxir
BCR-ABL+ FL5.12 cells [3] = assay: Fatty acid oxidation, 3H release from 3H-palmitate; type: cell-based, murine; conditions: etomoxir, upon S6K1 inactivation; FIG. 7A
Experimental: (§1) The rate of ^3H release from ^3H-palmitate was used to measure FAO. The ^3H-palmitate was adopted from Djouadi, et al., (2003) Mol Genet Metab 78:112-8. Between approximately 0.5×10^6 and approximately 1.0×10^6 cells were washed with PBS, then cultured with approximately 400 μL of (9,10-^3H) palmitate:albumin for approximately 4 hours at approximately 37 degrees C. After incubation, approximately 10% TCA was added to each tube and centrifuged at approximately 3300 rpm for approximately 10 min at approximately 4 degrees C. before being mixed with 6N NaOH and applied to ion-exchange columns. Each column was washed with approximately 1 mL of water and the eluates were counted using a scintillation counter.

BCR-ABL+ KBM7 cells = assay: Fatty acid oxidation, 3H release from 3H-palmitate; type: cell-based, human; conditions: etomoxir and/or rapamycin; FIG. 7C
Experimental: as §1

BCR-ABL+ K562 cells [4] = assay: Fatty acid oxidation, 3H release from 3H-palmitate; type: cell-based, human; conditions: etomoxir and/or rapamycin; FIG. 7B
Experimental: as §1

S6K1 = assay: Ribosomal protein S6 phosphorylation as readout of S6K1 activity; type: cell-based; conditions: imatinib 1.5 μM
Experimental: In particular, vector control and BCR-ABL^+ cells were cultured for three (3) hours in the absence of growth factor, then restimulated for thirty (30) minutes for analysis of S6K1 phosphorylation at T389 and the phosphorylation of ribosomal protein S6 at serines 235/236.
Small ribosomal protein S6 (pS^6) phosphorylation was measured.

NC(=O)c1ncn([C@@H]2O[C@H](CO)[C@@H](O)[C@H]2O)c1N [AICAR, 5-aminoimidazole-4-carboxamide 1-β-D-ribofuranoside]
glucose-independent survival (BCR-ABL+ FL5.12 cells [1]; AICAR, low glucose, level similar to S6K1 knockdown, FIG. 8B): triggered glucose-independent survival

Cn1c(=O)n(-c2ccc(C(C)(C)C#N)cc2)c2c3cc(-c4cnc5ccccc5c4)ccc3ncc21 [BEZ235]
Akt activation (phosphorylation at serine 473) (Akt): prevented the increase in Akt activation | glucose-independent survival (BCR-ABL+ FL5.12 cells [1]; S6K1 inactivation (knockdown) plus BEZ235, low glucose, FIG. 5B): did not prevent glucose-independent survival

CCC(=O)NC[C@H](Cc1ccc(OCCc2nc(-c3ccccc3)oc2C)cc1)N/C(C)=C\C(=O)c1ccc(C(F)(F)F)cc1 [GW6471, N-((2S)-2-(((1Z)-1-Methyl-3-oxo-3-(4-(trifluoromethyl)phenyl)prop-1-enyl)amino)-3-(4-(2-(5-methyl-2-phenyl-1,3-oxazol-4-yl)ethoxy)phenyl)propyl)propanamide]
viability (restoring apoptosis) (BCR-ABL+ FL5.12 cells [1]; 1 μM GW6471, 20 nM rapamycin pretreated, 50 μM glucose, 48 hours, FIG. 14): somewhat effective in restoring apoptosis

CC(C)(Sc1ccc(CCN(CCCCC2CCCCC2)C(=O)NC2CCCCC2)cc1)C(=O)O [GW7647]
viability (BCR-ABL+ FL5.12 cells [1]; 10 μM GW7647, vehicle-control treated cells, 50 μM glucose, 48 hours, FIG. 14): undesired increase in viability

CCCCCCNc1ccc(NS(=O)(=O)c2ccsc2C(=O)OC)c(OC)c1 [ST247]
viability (cell death) (BCR-ABL+ FL5.12 cells [1]; 5 μM ST247, 20 nM rapamycin pretreated overnight, no IL-3, no glucose): triggered substantial cell death | viability (restoring apoptosis) (BCR-ABL+ FL5.12 cells [1]; 5 μM ST247, 20 nM rapamycin pretreated, 50 μM glucose, 48 hours, FIG. 14): restoring apoptosis | viability (survival advantage) (BCR-ABL+ FL5.12 cells [1]; 5 μM ST247, 20 nM rapamycin pretreated, 100 μM glucose, 46 hours, FIG. 13): counteracted the survival advantage induced by rapamycin | viability (cell death) (BCR-ABL+ FL5.12 cells [1]; lesser concentrations of ST247 (0.5 μM, 1 μM), rapamycin-treated, no glucose): little effect

CCOC(=O)[C@@]1(CCCCCCOc2ccc(Cl)cc2)CO1 [etomoxir]
cytotoxicity of etomoxir in the presence of rapamycin (BCR-ABL+ K562 cells [2]): enhanced cytotoxicity | 3H release from 3H-palmitate (FAO) (BCR-ABL+ FL5.12 cells [3]): reduced ^3H release | 3H release from 3H-palmitate (FAO) (BCR-ABL+ KBM7 cells): reduced ^3H release | 3H release from 3H-palmitate (FAO) (BCR-ABL+ K562 cells [4]): reduced ^3H release | apoptosis, combination with S6K1 knockdown (BCR-ABL+ FL5.12 cells [1]; 200 μM etomoxir plus S6K1 knockdown, full glucose, approximately 48 hours, FIG. 9A): induced significant apoptosis | cytotoxicity as a single agent (BCR-ABL+ FL5.12 cells [1]; 200 μM etomoxir, full glucose, approximately 48 hours, FIG. 9A): mild cytotoxic effect | cell death in response to etomoxir, dose curve with S6K1 knockdown (BCR-ABL+ FL5.12 cells [1]; etomoxir about 200 μM to about 300 μM, full glucose, FIG. 9B): enhanced cell death | cell survival mediated by AICAR (BCR-ABL+ FL5.12 cells [1]; low glucose, etomoxir added, FIG. 8B): prevented cell survival | survival of S6K1 knockdown cells (BCR-ABL+ FL5.12 cells [1]; low glucose, presence of etomoxir, FIG. 8A, 8B): prevented the survival; also recorded: prevented cell survival

Cc1ccc(NC(=O)c2ccc(CN3CCN(C)CC3)cc2)cc1Nc1nccc(-c2cccnc2)n1 [imatinib]
S6K1 activity (phosphorylation of pS6) (S6K1): reduced S6K1 activity
